Tested on: T1, Gp Hcdh (Unk-9; G. pamelaeae HCA dehydroxylase)
T1 construct: native untagged enzyme purified from G. pamelaeae 3C grown with HCA (ammonium sulfate, HIC, AEC, SEC); two subunits; catalytic subunit 770 aa; one Mo per protein (bis-MGD); with Hydrocaffeic acid dehydroxylase accessory subunit
Test: continuous spectrophotometric assay, methyl viologen oxidation at […] nm, Michaelis-Menten fit of initial rates
Assay type: biochemical, Gordonibacter pamelaeae
Conditions: 100 nM enzyme, anaerobic, 50 mM MOPS pH 7.0, 300 mM NaCl, 200 uM methyl viologen, 100 uM sodium dithionite, HCA 0.0625-4 mM

Km: 240 µM
SMILES: O=C(O)CCc1ccc(O)c(O)c1 [HCA, 3,4-dihydroxyhydrocinnamic acid]
